# From patent publication US8088822B2, “Use of fenretinide or bioactive derivatives thereof and pharmaceutical compositions comprising the same” (priority 2008, dated 2012)
# Experiments:
# K562 = experiment: Apoptosis in CML cell line K562; type: cell-based; details: 4 μM fenretinide, 0.25 μM imatinib, 0.1 μM MG132, alone or combined
# Procedure: (§1) 2×10^5 cultured cells were used for evaluating apoptosis using an ApoAlert Annexin V-FITC Apoptosis Kit (BD Biosciences). Cells were washed once by PBS, resuspended in 200 μl Annexin-V binding buffer, and then stained with Annexin V-FITC 5 μl, PI 10 μl for 15 min at room temperature in the dark. Cells were subsequently analyzed by flow cytometry.
# [1] = tested on: CD34+CD38+ CML progenitor cells; experiment: Apoptosis (Annexin V/7AAD, FACS) of CML progenitor cells; type: cell-based, human
# Source text: (§2) Fresh bone marrow (BM) cells were obtained from 38 patients with CML and 5 non-leukemic donors, 25 AML, 17 ALL, and 8 normal specimens with informed consent according to the Declaration of Helsinki. Approval was obtained from Institutional Review Board at the School of Medicine in Shanghai Jiao Tong University. BM mononuclear cells were isolated by Ficoll density gradient centrifugation (Shanghai Second Reagent Factory, Shanghai, China). CD34^+ Cell were selected using EasySep® Human CD34 Positive Selection kit (Stem Cell Technologies, Vancouver, BC, Canada) according to the manufacturer's instructions. The purity of CD34 cells ranged between 92 and 98% in all samples detennined by flow cytometry. The CD34^+ cells were cultured in a serum-free medium (StemPro 34; Gibco BRL, Gaithersburg, Md.) supplemented with growth factors (PeproTech, London, United Kingdom) (20). The growth factors consisted of GM-CSF (200 pg/mL), G-CSF (1 ng/mL); SCF (200 pg/mL); LIF (50 pg/mL), MIP-1α (200 pg/mL) and IL-6 (1 ng/mL).
# Primitive AML and CML subpopulations (CD34^+ cells) were identified using CD34-PE in combination with CD38-APC, and followed by double-labeling with 7AAD and Annexin V antibodies for apoptosis assessment. The CD34^+ cells were first stained with antibodies against the surface markers CD34-PE and CD38-APC (Beckman Coulter, Fullerton, Calif.) and incubated at room temperature for 15 minutes. Cells were then washed with cold PBS and resuspended in 200 μL annexin V 1×binding buffer (10 mM HEPES/NaOH, pH 7.4, 140 mM NaCl, 2.5 mM CaCl2), 5 μL AnnexinV-FITC (BD Phanningen, San Diego, Calif.) and 7-aminoactinomycin (7-AAD, 0.25 mg/mL) (Molecular Probes, Eugene, Oreg.). Subsequently, the samples were incubated at room temperature for 15 minutes and analyzed by flow cytometry.
# It would be of significance to find out the subpopulations specifically targeted by fenretinide. We divided the CML patient specimens into mononuclear cells and CD34^+ cells. The CD34^+ CML cells are primitive cells including CML stem and progenitor cells. […]
# XBP-1 = experiment: RT-PCR of ER stress marker XBP-1 splicing in K562 cells; type: cell-based; details: whole time courses
# Source text: Real-time quantitative RT-PCR was preformed on ABI7900 thermocycler detection system using SYBR Green I (Applied Biosystems, Foster City, Calif.).
# Despite of tremendous efforts (Oridate et al., 1997), mechanisms underlying fenretinide-induced apoptosis are far from clear. In particular, knowledge in terms of how oxidative stress is converted into downstream activities in fenretinide-treated cancer cells is limited. We performed a comprehensive analysis of fenretinide-induced apoptosis in leukemia cell lines through microarray technology integrated robust data mining tool, and techniques of molecular biology. Transcriptome analysis of fenretinide-induced apoptosis in NB4 cells highlighted numerous stress-responsive events at the temporal-spatial level, typifying a process of oxidative stress-mediated apoptosis. Among these prominent events were genes involved in transcriptional regulation, ribosome machinery, oxidative stress, endoplasmic reticulum stress/unfolded protein response (UPR), ubiquitin-proteasome system and apoptosis (FIG. 7A). […] Recently, data have shown that fenretinide may perturb cellular homeostasis and induced ER stress, which may eventually contribute to apoptosis. ER stress is cellular defense mechanism responding to various stimuli including oxidative stressors. […]
# [2] = tested on: normal hematopoietic stem cells (HSC); experiment: Apoptosis/toxicity in normal hematopoietic stem cells; type: cell-based, human; details: representative specimen
# Source text: as §2
# (§3) Primitive AML and CML subpopulations (CD34^+ cells) were identified using CD34-PE in combination with CD38-APC, and followed by double-labeling with 7AAD and Annexin V antibodies for apoptosis assessment. […] Subsequently, the samples were incubated at room temperature for 15 minutes and analyzed by flow cytometry. […]
# CML mononuclear cells = experiment: Apoptosis of CML mononuclear cells; type: cell-based, human; details: CML patient specimens
# Source text: as §2, §3
# HL60 cells = experiment: Annexin V apoptosis assay in proliferating and serum-deprived quiescent HL60 cells; type: cell-based; details: 24 h
# Procedure: HL60 cells were cultured in RPMI 1640 supplemented (i) with or (ii) without 10% fetal bovine serum to obtain proliferating and quiescent leukemia cells respectively. Serum-deprived quiescent leukemic cells and proliferating leukemic cells were then cultured in media containing 0.5% FBS, and treated with 1 μM and 2.5 μM fenretinide, and also with chemotherapeutics as controls, 20 μM idarubicin (IDA) and 5 μM cytarabine (Ara-C).
# as §1
# To examine the effects of fenretinide on proliferating and quiescent leukemia cells, HL60 cells were chosen as serum deprived quiescent leukemic cell model obtained when incubated in RPMI 1640 without serum for 48 h, with G0/G1 phase cells (being in quiescent state) accounting up to 59.9%. Serum-deprived quiescent leukemic cells and proliferating leukemic cells were then cultured in media containing 0.5% FBS, and treated with 1 μM and 2.5 μM fenretinide, and also with chemotherapeutics as controls, 20 μM idarubicin (IDA) and 5 μM cytarabine (Ara-C). […] Fenretinide induces intracellular production of ROS, lowers mitochondrial transmembrane potential (MTP), and eventually leads to apoptosis in a variety of malignancies. We measured MTP induced by fenretinide in proliferating and quiescent HL60 cells, as examined through rhodamine 123 and propidium iodide staining and followed by flow cytometry analysis. […] We further measured intracellular ROS abundance induced by fenretinide. […] After incubation with 1 μM and 2.5 μM fenretinide for 3 h, the ROS level of proliferating cells increased by 1.77 and 2.6 fold, respectively.
compound,measurement,setting,value
"CC1=C(/C=C/C(C)=C/C=C/C(C)=C/C(=O)Nc2ccc(O)cc2)C(C)(C)CCC1 [fenretinide, N-(4-hydroxyphenyl)retinamide]",apoptosis rate,K562,2.46%
same,apoptosis of CD34+CD38+ cells,[1]; 2 μM fenretinide,17.83%±6.01%
same,apoptosis of CD34+CD38+ cells,[1]; 4 μM fenretinide,30.60%±4.93%
same,apoptosis of CD34+CD38+ cells,[1]; 6 μM fenretinide,33.08%±19.43%
same,splicing of the XBP-1 gene,XBP-1,observable
same,change in the cell proportion of normal HSC,[2],5.36%
same,apoptosis in normal HSC,[2]; fenretinide alone or co-treatment with imatinib,19.08%
same,apoptosis in mononuclear cells,CML mononuclear cells,little apoptosis
same,percentage of apoptotic cells,"HL60 cells; proliferating HL60 cells, 1 μM fenretinide",11.8%
same,percentage of apoptotic cells,"HL60 cells; proliferating HL60 cells, 2.5 μM fenretinide",36.8%
same,percentage of apoptotic cells,"HL60 cells; serum-deprived quiescent HL60 cells, 1 μM fenretinide",39.5%
same,percentage of apoptotic cells,"HL60 cells; serum-deprived quiescent HL60 cells, 2.5 μM fenretinide",52.7%
